Measurements as given in US20250324983A1, “METHOD AND APPARATUS FOR CONTROLLING ARTHROPODS USING MASSOIA ESSENTIAL OIL AND RELATED PYRONES” (The United States of America, as Represented by the …, priority 2024, published 2025).

What was measured:
Aedes aegypti = assay: Spatial repellency, high-throughput glass tube assay; format: in vivo; details: concentration repelling 50% of adult female Aedes aegypti, treated filter paper in glass tube
Description: Adult female non-bloodfed Aedes aegypti that were 2-10 days post-eclosion were cold-anesthetized by placing on ice for several minutes. Each replicate consisted of 16 anesthetized females transferred to a glass tube (length 12.5 cm, outer diameter 2.5 cm) (TriKinetics Inc., Waltham, MA). Glass tubes were then enclosed on each end by netting held in place with blue caps removed from 50-mL polypropylene centrifuge tubes (Falcon™; Corning Inc., Corning, NY). Mosquitoes were allowed at least 15 min to recover from cold anesthetization. Round filter papers (diameter 2.5 cm) (Sigma-Aldrich Chemical Co., CITY, ST) were treated with 50 μL solution of compound dissolved in acetone at different concentrations. Treated filter papers were allowed to air dry for 10 min to allow for acetone evaporation, at which point filter papers were placed inside the cut ends of 50-mL polypropylene centrifuge tubes. The end caps with treated filter paper were then placed on the ends of the glass tubes, replacing the blue caps, with the netting left to prevent mosquito escape.
Glass tube bioassay setups were placed on a contrasting white background to facilitate observing and counting mosquitoes with a black line drawn to mark the center of the tube length. Control bioassays were set up with filter papers treated with 50 μL of acetone. Repellency was calculated as a repellency ratio using the formula: number of mosquitoes on the experimental treatment side/16, where a value of 0 is equal to full repellency and a value of 0.5 indicates no effect—i.e., an even distribution of mosquitoes on either side the tube midline. Data were recorded at 15 min, 30 min, and 1 hr for repellency and knockdown, as well as at 24 hr for mortality. […] Each concentration was replicated at least three times. After use, glass tubes were decontaminated by washing in soapy water and rinsed with acetone and distilled water. Treatment caps and nettings were washed using soapy water and rinsed with distilled water. Data were analyzed using a 4-parameter logistic regression in GraphPad Prism 9. The effective concentration that repelled 50% of mosquitoes (EC50) was used to compare different treatments.

Aedes albopictus = details: compounds identified from massoia and nutmeg essential oils; cited from earlier work
[1] = tested on: mosquitoes or biting flies; assay: Contact repellency, cloth patch test (minimum effective dose); format: in vivo; details: minimum effective dose on cloth
Description: The cloth patch test can be used to assess the effective repellency duration for a particular application rate of a chemical to cloth being worn on the arm of a human subject. The test allows candidate repellents to be tested without contacting the skin. The candidate substance is dissolved initially in a suitable solvent which is typically acetone; however, can be extended to ethanol or DMSO (dimethyl sulfoxide). The typical protocol for a limited quantity of substance involves dissolving up to 75 mg of the candidate repellent into 1 mL of an appropriate volatile solvent, such as acetone or ethanol, in a 2-dram vial. The choice of solvent depends upon the miscibility characteristics of the candidate repellent. A 50 cm^2 (5 cm×10 cm) clean, untreated piece of muslin cloth is rolled, placed in the vial and sealed therein to allow the cloth to saturate completely with the solution. […] Prior to the bioassay, the saturated cloth is removed and each end of the cloth is attached to a 5 cm×2.5 cm piece of cardstock paper. To each card, masking tape is attached. The card/cloth assembly is then allowed to dry for 15 min hanging from a rack by the masking tape. This time is adequate to allow complete evaporation of the solvent from the cloth.
To prepare the arm for testing, the volunteer first places a latex or nitrile glove (extended length beyond the wrist) over the hand and arm and then pulls a nylon hose stocking over the hand and arm up to a point that is past the elbow. This glove prevents mosquitoes from biting through to the hand, wrist, and part of the arm where the glove provides protection. A thick plastic sleeve with a Velcro® strip is then fastened around the arm. There is a 4 cm×8 cm window opening cut into the sleeve. Volunteers may elect to use either of the two designs of this sleeve: one has a window opening with a screen mesh, the other is completely open. The cloth card frame is then taped onto the forearm at a position overlapping the window opening of the sleeve. This allows attractive human odors to escape through the opened area of the sleeve and this small window is the only area accessible for bites. Once the cloth/card assembly is on the arm, the arm is placed inside an insect cage with mosquitoes or biting flies for one minute. Typically, the test involves 500 biting flies or mosquitoes, but can be performed at a variety of biting pressures from 200-2000 individuals, but is rarely ever performed at a pressure of greater than 2000 in a cage. […]
If a sufficient quantity of the candidate repellent is available, the minimum effective dose (MED) can be determined. […] In these cases, stoichiometric equivalents, i.e., micromolar quantities, are applied to the cloth and tested as described above. […]

[2] = tested on: Aedes aegypti mosquitoes (susceptible—Orlando strain); assay: Topical application, knockdown and mortality; details: in vivo
Description: Aedes aegypti mosquitoes (susceptible—Orlando strain) were reared using standard protocols at the United States Department of Agriculture, Agricultural Research Service Center for Medical, Agricultural, and Veterinary Entomology (CMAVE) in Gainesville, FL. Mosquitoes raised from pupae were aspirated from colony cages and anesthetized on ice. Mosquitoes were then treated with 0.2 μL of variable concentrations of insecticidal active ingredients using a repeating microapplicator (Hamilton Co., Reno, NV). Ten mosquitoes were used per concentration and at least three different biological cohorts were used in the analysis. Knockdown (defined as inability to fly or orient in the upright direction) was recorded at 1 hr or other time points post application (depending on the experiment), whereas mortality (defined as no movement-ataxia) was recorded at 24 hr. Concentrations that produced 10-90% mortality at 24 hr post exposure were used in the analysis to calculate the lethal dose required to kill 50% of the population (LD50). SAS 9.4 was used to calculate the LD50 values using a PROC PROBIT model with Abbott's correction to account for any control mortality.

[3] = tested on: central nervous system (CNS) of third-fourth-instar Aedes aegypti larvae; assay: Central nervous system recording of mosquito larvae; details: applied at 100 μM
Description: Extracellular recordings were performed on the central nervous system (CNS) of third-fourth-instar Aedes aegypti larvae as previously described in Norris et al., “Recording central neurophysiological output from mosquito larvae for neuropharmacological and insecticide resistance studies”, Journal of Insect Physiology, 135 (2021) 104319. Mosquito larvae were pinned down and dissected to expose the descending ventral nerve cord in a saline bath (157 mM NaCl, 3 mM KCl, 2 mM CaCl2), 4 mM HEPES). The ventral nerve cord was severed using a small forceps between the second and third abdominal ganglion. Descending electrical activity was monitored by drawing emanating nerve fibers from the ventral nerve cord into a suction electrode connected to an AC/DC differential amplifier (Model 3000, A-M Systems, Inc., Carlsborg, WA). Signals were subjected to window amplitude discrimination and converted into a rate plot, expressed in Hertz (Hz), using LabChart 7 Pro software (AD Instruments Inc. Colorado Springs, CO). Noise (60 Hz) was eliminated using a Hum Bug (A-M Systems, Sequim, WA,).
Electrical activity was monitored for approximately 5-10 min to establish a baseline CNS firing rate before test solutions were added to the bath in DMSO at 1 μL of solution diluted into 999 μL of saline. All concentrations of active ingredients were expressed as their final concentrations in saline. […]

CCCCN(CCC(=O)OCC)C(C)=O [IR3535, ethyl butylacetylaminopropionate, reference compound]
EC50 (spatial repellency) (Aedes aegypti): 91.8 μg/cm^2

CCCCCCC[C@@H]1CC=CC(=O)O1 [C12 massoia lactone, C-12-massoia lactone]
larvicidal activity (in words) (Aedes albopictus): strong larvicidal activity

O=C(OCc1ccccc1)c1ccccc1O [benzyl salicylate]
larvicidal activity (in words) (Aedes albopictus): strong larvicidal activity

CCN(CC)C(=O)c1cccc(C)c1 [DEET, N,N-Diethyl-meta-toluamide]
MED [1]: 0.009 ± 0.003 ^B mg/cm^2

CC1=CCC(=C(C)C)CC1 [terpinolene]
larvicidal activity (in words) (Aedes albopictus): strong larvicidal activity

C=C1CCC2(C(C)C)CC12 (centres unmarked) [sabinene]
larvicidal activity (in words) (Aedes albopictus): strong larvicidal activity

O=C(OCc1ccccc1)c1ccccc1 [benzyl benzoate]
larvicidal activity (in words) (Aedes albopictus): strong larvicidal activity

C/C=C/C(=O)C1C(C)C=CCC1(C)C (centres unmarked) [δ-damascone]
EC50 (spatial repellency) (Aedes aegypti): 108.5 μg/cm^2

CCCCCCCC1CCC(=O)O1 (centres unmarked) [γ-undecalactone]
EC50 (spatial repellency) (Aedes aegypti): 18.32 μg/cm^2

CCCCCc1cccc(=O)o1 [α-amyl-pyrone]
EC50 (spatial repellency) (Aedes aegypti): 6.1 μg/cm^2

CC1(C)C(C=C(Cl)Cl)C1C(=O)OCc1cccc(Oc2ccccc2)c1 (centres unmarked) [permethrin]
MED [1]: 0.100 ± 0.022 ^A mg/cm^2

jasmolactone
EC50 (spatial repellency) (Aedes aegypti): 60.5 μg/cm^2

CCC(C)OC(=O)N1CCCCC1CCO (centres unmarked) [icaridin]
MED [1]: 0.015 ± 0.004 ^B mg/cm^2

CCCCCC1CC=CC(=O)O1 (centres unmarked) [massoia lactone, 2H-pyran-2-one, 5,6-dihydro-6-pentyl-]
Slope (LD50) [2]: 8.3
larvicidal activity (in words) (Aedes albopictus): strong larvicidal activity
nerve block (CNS firing) [3]: some nerve block
EC50 (spatial repellency) (Aedes aegypti): 5.9 μg/cm^2
MED [1]: 0.007 ± 0.002 ^B mg/cm^2

CCCCCCCC1CCCC(=O)O1 (centres unmarked) [5-dodecanolide]
EC50 (spatial repellency) (Aedes aegypti): 77.11 μg/cm^2

δ-undecalactone
EC50 (spatial repellency) (Aedes aegypti): 29.5 μg/cm^2
